In paper PMC3108484 (Frontiers in Pharmacology, 2011):
Read-outs that look alike come from different tables or passages of the source. Values belong to the molecule of their own block, whether it stands above or below them.

What was measured:
[1] = biological target: 5-HT4 receptor (Cavia porcellus, UniProt O70528); experiment: Guinea pig colonic longitudinal muscle/myenteric plexus; conditions: for Guinea pig colonic LMMP contractile activity IA (mean % 5-HT max ± SEM): isolated tissue, % of primed 5-HT (0.3 μM) maximum
Chain of 5-HT4 receptor (O70528 whole entry): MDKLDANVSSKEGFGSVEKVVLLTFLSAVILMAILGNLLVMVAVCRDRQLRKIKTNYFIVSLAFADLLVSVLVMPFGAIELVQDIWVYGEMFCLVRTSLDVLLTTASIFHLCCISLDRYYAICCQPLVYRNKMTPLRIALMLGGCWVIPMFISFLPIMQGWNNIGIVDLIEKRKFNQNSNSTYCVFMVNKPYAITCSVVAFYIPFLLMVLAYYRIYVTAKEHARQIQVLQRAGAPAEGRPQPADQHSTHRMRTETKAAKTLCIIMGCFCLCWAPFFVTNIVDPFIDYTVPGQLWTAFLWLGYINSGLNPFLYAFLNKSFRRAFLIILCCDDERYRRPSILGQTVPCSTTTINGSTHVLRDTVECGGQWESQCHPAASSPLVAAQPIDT

[2] = system: rat esophagus; experiment: Rat esophageal relaxation; format: in vivo; conditions: cumulative i.d. dosing, anesthetized rats
[3] = system: canine antrum, duodenum, and jejunum; experiment: Dog gastrointestinal contractility; format: in vivo; conditions: oral, conscious fasted dogs; TD-8954 0.01 and 0.03 mg/kg, tegaserod 0.1 and 0.3 mg/kg
[4] = biological target: human 5-HT4(c) (h5-HT4(c)) receptor (Homo sapiens, UniProt Q13639); experiment: biochemical
Chain of human 5-HT4(c) (h5-HT4(c)) receptor (Q13639 1-380 isoform Q13639-4): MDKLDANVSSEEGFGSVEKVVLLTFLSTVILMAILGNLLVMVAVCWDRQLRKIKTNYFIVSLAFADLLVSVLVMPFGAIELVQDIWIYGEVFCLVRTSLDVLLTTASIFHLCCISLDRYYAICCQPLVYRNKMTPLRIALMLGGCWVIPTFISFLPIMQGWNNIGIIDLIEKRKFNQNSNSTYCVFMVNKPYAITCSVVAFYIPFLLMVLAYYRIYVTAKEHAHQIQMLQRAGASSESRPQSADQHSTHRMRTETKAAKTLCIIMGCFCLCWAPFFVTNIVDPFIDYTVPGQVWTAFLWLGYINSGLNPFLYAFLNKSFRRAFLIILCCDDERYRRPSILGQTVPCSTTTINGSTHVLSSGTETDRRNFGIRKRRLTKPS

[5] = biological target: human 5-HT4(c) receptor (Homo sapiens, UniProt Q13639); format: cell-based; conditions: for pKb of GR113808 (Schild regression): GR113808 0.6, 1.7, or 5 nM, 95% CI
Chain of human 5-HT4(c) receptor (Q13639 1-380 isoform Q13639-4): as above

[6] = biological target: hERG potassium channel (Homo sapiens, UniProt Q12809); experiment: in vitro
Chain of hERG potassium channel (Q12809 whole entry): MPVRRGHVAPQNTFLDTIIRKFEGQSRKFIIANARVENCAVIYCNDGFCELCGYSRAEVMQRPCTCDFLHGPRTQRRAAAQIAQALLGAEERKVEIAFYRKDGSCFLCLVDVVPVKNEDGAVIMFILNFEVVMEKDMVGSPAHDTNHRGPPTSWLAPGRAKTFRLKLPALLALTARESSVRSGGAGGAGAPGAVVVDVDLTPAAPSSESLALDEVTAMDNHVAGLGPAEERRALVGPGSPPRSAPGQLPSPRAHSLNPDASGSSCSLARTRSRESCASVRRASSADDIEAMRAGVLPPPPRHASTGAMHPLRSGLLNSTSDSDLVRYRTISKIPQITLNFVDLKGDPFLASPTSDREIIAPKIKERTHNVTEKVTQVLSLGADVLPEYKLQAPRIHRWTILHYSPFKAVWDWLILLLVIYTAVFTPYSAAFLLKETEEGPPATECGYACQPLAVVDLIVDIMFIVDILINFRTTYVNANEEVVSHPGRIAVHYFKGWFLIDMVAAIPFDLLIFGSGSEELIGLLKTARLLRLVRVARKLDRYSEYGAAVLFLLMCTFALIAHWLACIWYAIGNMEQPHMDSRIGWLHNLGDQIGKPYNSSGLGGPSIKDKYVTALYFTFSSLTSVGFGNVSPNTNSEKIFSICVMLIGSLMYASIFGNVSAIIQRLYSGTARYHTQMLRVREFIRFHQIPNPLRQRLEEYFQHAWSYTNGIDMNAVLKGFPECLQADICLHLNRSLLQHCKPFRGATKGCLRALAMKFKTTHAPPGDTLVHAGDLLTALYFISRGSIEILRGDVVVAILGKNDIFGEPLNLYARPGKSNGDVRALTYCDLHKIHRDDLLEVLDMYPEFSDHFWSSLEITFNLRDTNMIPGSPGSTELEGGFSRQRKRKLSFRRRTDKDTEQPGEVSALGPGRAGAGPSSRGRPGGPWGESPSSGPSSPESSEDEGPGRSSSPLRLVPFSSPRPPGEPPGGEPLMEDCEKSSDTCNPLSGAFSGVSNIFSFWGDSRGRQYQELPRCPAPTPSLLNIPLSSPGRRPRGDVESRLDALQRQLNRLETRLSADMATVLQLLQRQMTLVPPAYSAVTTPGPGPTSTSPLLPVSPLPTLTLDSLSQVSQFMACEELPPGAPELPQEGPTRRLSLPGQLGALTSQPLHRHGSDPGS

Structure (SMILES): [H]/N=C(/NCCCCC)N/N=C/c1c[nH]c2ccc(OC)cc12 [Tegaserod, tegaserod]
- Guinea pig colonic LMMP contractile activity IA (mean % 5-HT max ± SEM) [1]: 45 ± 13 % 5-HT max
- Guinea pig colonic LMMP contractile activity IA (mean % 5-HT max ± SEM) ([1]; listed as tegaserod): 45 % 5-HT max
- dose associated with a relaxation response of 0.1 mm [2]: 2.43 mg/kg
- effect on contractility in the antrum, duodenum, and jejunum [3]: increases in contractility
- Ki [4]: 2.51 nM

Structure (SMILES): COc1cc(N)c(Cl)cc1C(=O)NC1CCN(CCCOc2ccc(F)cc2)CC1OC (stereo not shown) [Cisapride, cisapride]
- Guinea pig colonic LMMP contractile activity IA (mean % 5-HT max ± SEM) [1]: 75 ± 3 % 5-HT max
- Guinea pig colonic LMMP contractile activity IA (mean % 5-HT max ± SEM) ([1]; listed as cisapride): 75 % 5-HT max
- dose associated with a relaxation response of 0.1 mm [2]: 2.66 mg/kg
- inhibition at 0.02 µM [6]: 65%

Structure (SMILES): COCCCN1CCC(NC(=O)c2cc(Cl)c(N)c3c2OCC3)CC1 [Prucalopride, prucalopride]
- dose associated with a relaxation response of 0.1 mm [2]: 0.30 mg/kg

More lines, main results first:

- EC50 [5]: 501 nM
- EC50 [1]: 3980 nM
- Guinea pig colonic LMMP contractile activity IA (mean % 5-HT max ± SEM) [1]: 37 ± 2 % 5-HT max
- Guinea pig colonic LMMP contractile activity IA (mean % 5-HT max ± SEM) ([1]; listed as mosapride): 37 % 5-HT max
- Ki [4]: 158 nM
Structure (SMILES): CCOc1cc(N)c(Cl)cc1C(=O)NCC1CN(Cc2ccc(F)cc2)CCO1 (stereo not shown) [Mosapride, mosapride]
- dose associated with a relaxation response of 0.1 mm [2]: 4.37 mg/kg

- shift of the TD-8954 concentration–response curve ([1]; piboserod 0.3 μM, guinea pig colonic LMMP): 614 fold
Structure (SMILES): CCCCN1CCC(CNC(=O)c2c3n(c4ccccc24)CCCO3)CC1 [piboserod]

- pKb of GR113808 (Schild regression) ([5]; against 5-HT, cAMP accumulation): 10.3 (95% CI: 10.2–10.4)
- pKb of GR113808 (Schild regression) ([5]; against TD-8954, cAMP accumulation): 10.3 (95% CI: 10.2–10.5)
Structure (SMILES): Cn1cc(C(=O)OCC2CCN(CCNS(C)(=O)=O)CC2)c2ccccc21 [GR113808]
